In US8685372B2, “Peptides and aptamers for targeting of neuron or nerves” (The Regents of the University of California, priority 2009, dated 2014):
“Also recorded” adds a separate entry of the source. No end group written: not given here. heptamethinecyanine derivative = not defined here; Cy5 = Cy5 cyanine fluorescent dye label; 5,6FAM = 5(6)-carboxyfluorescein label

Key:
[1] = tested on: sciatic nerve; test: Histology: localization of binding in nerves of thy1-YFP transgenic mice; assay type: in vivo
Excerpt: To evaluate the localization of SEQ ID NO:4 binding in nerves, we treated thy1-YFP transgenic mice whose axons are genetically encoded with YFP under a neuron specific promoter (Feng et al, Imaging neuronal subsets in transgenic mice expressing multiple spectral variants of GFP. Neuron, 2000) with SEQ ID NO:31. […] These deeper nerve structures were not easily seen either with brightfield (FIG. 5A, insert) or YFP (FIG. 5B, insert) imaging. To evaluate the localization of SEQ ID NO:4 binding on a cellular level, we imaged cryosections (3-5 μm) of nerves and attached muscles from thy1-YFP animals treated with SEQ ID NO:31.

[2] = tested on: sciatic nerves; test: In vivo nerve labeling with fluorescently labeled peptides (nerve versus adjacent non-nerve tissue); parameters: species or system mice; settings: for Nerve contrast: derivatives of peptide SEQ ID NO: 4; for nerve to muscle contrast: FAM-labeled peptides intravenously, living mice, after wash-out
Procedure: To test the nerve binding affinity of each of the isolated peptide sequences in vivo, carboxyfluorescein (FAM)-labeled peptides were injected intravenously into living mice. Following a wash-out period, the contrast between nerve and muscle binding of the labeled peptides was evaluated.
Wild-type albino C57BL6 (Jackson Laboratory) or SKH1 (Charles River Laboratories) mice were treated intravenously with 150 nmoles of fluorescently labeled SEQ ID NO:4 via tail vein injection. Following a 2-3 hour wash-out period for SEQ ID NO:25 or 5-6 hours for SEQ ID NO:31, mice were anesthetized with ketamine and midazolam (80 mg/kg intraperitoneally), a skin incision was made over the dorsal surface of the hind, legs and the sciatic nerves exposed bilaterally. […] Nerves and adjacent non-nerve tissue was delineated with Image J and relative fluorescence was measured. Following background subtraction using dark current measurements and measurements of a standard, the ratios of peptide binding to nerve versus adjacent non-nerve tissue were calculated.

[3] = Peptide biodistribution and metabolism (organ fluorescence, LC-MS and MALDI of urine); assay type: in vivo, mice
Procedure: (§1) To evaluate the biodistribution of the peptide following systemic administration, organs were harvested from mice treated with SEQ ID NO:4 and fluorescence uptake was evaluated. […] To evaluate the metabolism of the peptide as it passed through the renal system, liquid chromatography-mass spectrometry (LC-MS, Agilent) tracing was used to compare urine obtained from mice injected with SEQ ID NO:25 or SEQ ID NO:31 intravenously versus urine from normal mice spiked with the native SEQ ID NO:25 or SEQ ID NO:31. […] Next, matrix-assisted. laser desorption/ionization (MALDI) was used to evaluate the nature of the modification to the peptide as it was metabolized.
as §1, with “NO:25 and” for “NO:25 or”, “ID NO:3” for “ID NO:31”, “ID NO:25.” for “ID NO:25 or SEQ ID NO:31.”, “Next, matrix-assisted” for “Next, matrix-assisted.”

[4] = tested on: dissected nerve tissue; test: In vitro nerve binding: dissected nerve tissue incubated with peptide; parameters: species or system mice; settings: 100 nM peptide, one hour incubation
Procedure: To test the nerve binding affinity of each of the isolated peptide sequences in vitro, dissected nerve tissue was removed from mice and incubated for one hour with 100 nM of each peptide, including a control peptide made up of amino acids that were contained within the various phages selected and sequenced, but in a mixed-up order and designed without repeating any single amino acid except for glycine (which was added to the C-terminus as a flexible linker).

ACETYL-SHSNTQTLAKAPEHTG-(L-cys)-(Cy5)-amide (Ac-SHSNTQTLAKAPEHTGC(Cy5)-NH2; also: Cy5 on C-terminal Cys, attachment site not given here) [SEQ ID NO:31]
labeling of nerves genetically encoded with YFP ([1]; Cy5 fluorescence versus YFP and brightfield): precisely labels nerves | localization of labeling within nerve ([1]; cryosections of nerves): most localized to the epineurium of the nerves with some labeling of the perineurium and endoneurium; also recorded: labeling of epineurium, perineurium and endoneurium | tissue penetration compared to imaging in the visible range ([1]; mouse, in vivo): deeper tissue penetration | Nerve contrast [2]: Medium/High | native peptide detectable in urine of intravenously injected mice ([3]; LC-MS): none | only fluorescently labeled entity identified in urine ([3]; MALDI): cysteine-Cy5

AHHNSWKAKHHS (peptide that specifically binds to a neuron, nerve, or component of either) [SEQ ID NO:1]
nerve to muscle contrast [2]: little significant nerve-to muscle contrast | uptake/binding to dissected nerve tissue compared to no peptide or control peptide [4]: two-fold increase over control to no difference from control

DFTKTSPLGIH (peptide that specifically binds to a neuron, nerve, or component of either) [SEQ ID NO:5]
nerve to muscle contrast [2]: exhibited nerve to muscle contrast, although at a lower level than that of SEQ ID NO:4 | uptake/binding to dissected nerve tissue compared to no peptide or control peptide [4]: two-fold increase over control to no difference from control

Free amine- SHSNTQTLAKAPEHTG-(L-cys)-(5,6FAM)-amide (H-SHSNTQTLAKAPEHTGC(5,6FAM)-NH2; not fully specified) [SEQ ID NO: 47]
Nerve contrast [2]: Medium/High

KSLSRHDHIHHH (peptide that specifically binds to a neuron, nerve, or component of either) [SEQ ID NO:3]
nerve to muscle contrast [2]: exhibited nerve to muscle contrast, although at a lower level than that of SEQ ID NO:4 | uptake/binding to dissected nerve tissue compared to no peptide or control peptide [4]: two-fold increase over control to no difference from control

acetyl- SHSNTQTLAKAPEHTG(L-cys)(5,6FAM)-amide (Ac-SHSNTQTLAKAPEHTGC(5,6FAM)-NH2; not fully specified) [SEQ ID NO: 46]
Nerve contrast [2]: Medium/High

acetyl- SHSNTQTLAKAPEHTG-(D-cys)-(5,6FAM)-amide (Ac-SHSNTQTLAKAPEHTG; not fully specified (C-terminus); also: 5,6FAM on C-terminal D-Cys, attachment site not given here)
Nerve contrast [2]: Medium

acetyl- SHSNTQTLAKAPEHTG-(D-cys)-(cy5)-amide (Ac-SHSNTQTLAKAPEHTG; not fully specified (C-terminus))
Nerve contrast [2]: Medium

acetyl- SHSNTQTLAKAPEHTG-(L-cys)-(IR800CW) (Ac-SHSNTQTLAKAPEHTGC(IR800CW); not fully specified) [SEQ ID NO: 48]
Nerve contrast [2]: Low

acetyl- SHSNTQTLAKAPEHTG-(L-cys)-(Texas Red)-amide (Ac-SHSNTQTLAKAPEHTGC(Texas Red)-NH2) [SEQ ID NO: 50]
Nerve contrast [2]: Medium

acetyl- SHSNTQTLAKAPEHTG-(L-cys)-(heptamethinecyanine derivative) (Ac-SHSNTQTLAKAPEHTGC(heptamethinecyanine derivative); not fully specified; reading uncertain) [SEQ ID NO: 52]
Nerve contrast [2]: Low

acetyl- SHSNTQTLAKAPEHTG-(L-cys)-(indocyanine green derivative) [SEQ ID NO: 51]
Nerve contrast [2]: Low

acetyl- SHSNTQTLAKAPEHTG-(L-cys-)-(TAMRA)-amide (Ac-SHSNTQTLAKAPEHTGC(TAMRA)-NH2) [SEQ ID NO: 49]
Nerve contrast [2]: Medium
